Data taken from US8822541B2, “Use of targeted nitroxide agents in mitigating or treating radiation injury” (University of Pittsburgh—Of the Commonwealth System of …, priority 2008, dated 2014).
Values joined by “and” are separate entries in the source; they are usually repeats but may differ in a detail not shown here. Equal values may be shown once.

Legend:
[1] = system: Sprague Dawley rats; experiment: Survival of rats subjected to volume-controlled hemorrhagic shock; assay type: in vivo, rat; conditions: 2 μmol/kg iv
Protocol: Survival of rats subjected to volume-controlled hemorrhagic shock. Following surgical preparation and a 5-min stabilization period to obtain baseline readings, rats were subjected to hemorrhagic shock. Bleeding was carried out in 2 phases.
Initially, 21 ml/kg of blood was withdrawn over 20 min. Immediately thereafter, an additional 12.5 ml/kg of blood was withdrawn over 40 min. Thus, hemorrhage occurred over a total period of 60 min and the total blood loss was 33.5 ml/kg or approximately 55% of the total blood volume. Rats were randomly assigned to receive XJB-5-131 (2 μmol/kg) or its vehicle, a 33:67 (v/v) mixture of DMSO and normal saline. XJB-5-131 solution or vehicle alone was administered as a continuous infusion during the last 20 min of the hemorrhage period. The total volume of fluid infused was 2.8 ml/kg and it was administered intravenously using a syringe pump (KD100, KD Scientific, New Hope, Pa.). […] At the end of the 6 hour observation period, animals that were still alive were euthanized with an overdose of KCl.
Blood pressure was recorded continuously using a commercial strain-gauge transducer, amplifier, and monitor (S90603a, SpaceLabs, Redmond, Wash.). Blood samples (0.5 ml) were collected from the jugular vein at the beginning of hemorrhage (baseline), at the end of hemorrhage (shock) and at the end of resuscitation (resuscitation). Hemoglobin concentration [Hb], lactate and glucose concentration were determined using an auto-analyzer (Model ABL 725, Radiometer Copenhagen, Westlake, Ohio).
A total of sixteen rats were tested in this study. Rats were treated with 2.8 ml/kg of vehicle or the same volume of XJB-5-131 solution during the final 20 min of the bleeding protocol. The total dose of XJB-5-131 infused was 2 μmol/kg. Following profound hemorrhagic shock consistent with the protocol described above for the prior studies, thirteen survived for at least 60 min and received the full dose of either XJB-5-131 solution or the vehicle, a 33:67 (v/v) mixture of DMSO and normal saline. […] None of the between-group differences were statistically significant.

[2] = system: 32D cl 3 cells; experiment: EPR-based analysis of nitroxide distribution and partitioning in subcellular fractions; assay type: cell-based, mouse; conditions: 10 μM, 1 h
Protocol: To determine nitroxide partitioning and distribution in subcellular compartments, electron paramagnetic resonance (EPR) was utilized. 32D cl 3 cells were incubated for 24 h under pelleted or flask growth conditions. After incubation, 150×10^6 cells were resuspended at a concentration of 10×10^6 cells/mL and were treated with 10 μM JP4-039 or 10 μM TEMPO for 1 h (Wipf P, et al., Mitochondrial targeting of selective electron scavengers: synthesis and biological analysis of hemigramicidin-TEMPO conjugates. J Am Chem. Soc. 127: 12460-12461, 2005).
Subcellular compartments were isolated by differential centrifugation. Cells were centrifuged at 1500 RPM for 10 min and the supernatant (media) was removed. The remaining whole cell pellet was washed with cold PBS, resuspended in 0.3 mL of hypotonic buffer solution, and incubated on ice for 45 min. Cells were then lysed by three rapid freeze-thaw cycles in liquid nitrogen for 30 sec and water at 25° C. for 3 min. Lysed cells were centrifuged at 3000×g for 5 min to isolate nucleus and cellular debris. Supernatant was centrifuged at 12000×g for 45 min to isolate mitochondria from cytoplasm (Wipf P, et al., Mitochondrial targeting of selective electron scavengers: synthesis and biological analysis of hemigramicidin-TEMPO conjugates. J Am Chem. Soc. 127: 12460-12461, 2005).
Each cellular fraction (media, whole cell pellet, nucleus/cellular debris, mitochondria, and cytoplasm) was mixed with DMSO (1:1 vol/vol) and 2 mM of potassium ferricyanide (K3Fe(CN)6) to convert […] to EPR-detectable radical forms (Behringer W, et al., Antioxidant Tempol enhances hypothermic cerebral preservation during prolonged cardiac arrest in dogs. J Cereb Blood Flow Metab. 22: 105-117, 2002). 70 μL of the homogenate was loaded into Teflon tubing (0.8 mm internal diameter) (Alpha Wire Corp., Elizabeth, N.J.) which was folded in half and placed into an open ESR quartz tube (inner diameter of 3.0 mm). EPR measurements were made in triplicate using a JEOL-RE1X EPR spectrometer (Jeol, Tokyo, Japan) under the following conditions: 334.7 mT center field, 5 mT sweep width, 0.079 mT field modulation, 20 mW microwave power, 0.1 sec time constant, and 2 min scan time at 22.5° C. Utilizing signal magnitude and isolated volumes, amount and concentration of JP4-039 or TEMPO were calculated for each sample.

CC(C)C[C@@H](/C=C/[C@H](Cc1ccccc1)C(=O)N1CCC[C@H]1C(=O)N[C@H](C(=O)N[C@@H](CCCNC(=O)OCc1ccccc1)C(=O)NC1CC(C)(C)N([O])C(C)(C)C1)C(C)C)NC(=O)OC(C)(C)C [XJB-5-131]
rats surviving longer than 3 hours after completion of the hemorrhage protocol [1]: Three of the six | rats surviving the whole 6 hour post-bleeding observation period [1]: one rat | survival time versus vehicle ([1]; no resuscitation): survived significantly longer

CC(C)C[C@@H](/C=C/CC(=O)NC1CC(C)(C)N([O])C(C)(C)C1)NC(=O)OC(C)(C)C [JP4-039, TEMPO-4-yl-(S,E)-5-(tert-butoxycarbonylamino)-7-methyloct-3-enamide]
cellular EPR signal detected in mitochondria ([2]; exponential growth): 5.0±0.3% | cellular EPR signal in nucleus and/or cellular debris ([2]; exponential growth): 37.2±0.3% | cellular EPR signal in the cytoplasm ([2]; exponential growth): 19.4±1.6% | concentration in the nucleus and cellular debris ([2]; exponential growth): 10.1 ± 0.1 µM | concentration in the whole cell pellet ([2]; exponential growth): 12.6 ± 0.2 µM | mitochondrial concentration ([2]; exponential growth): 8.5 ± 0.5 µM | cellular EPR signal in nucleus and/or cellular debris ([2]; pelleted cells): 33.2±3.8% | cellular EPR signal in the cytoplasm ([2]; pelleted cells): 29.5±0.7% | cellular EPR signal localized to the mitochondria ([2]; pelleted cells): 3.9±0.2% | mitochondrial concentration ([2]; pelleted cells): 10.90 ± 0.48 µM and 10.9 µM
